What was measured:
RP-HPLC lipophilicity = assay type: physicochemical; details: for logkW (chromatographic lipophilicity parameter): Kinetex C18, methanol-water 55-80%, extrapolated to 0% methanol; for -S HPLC (slope of linear equation): Table S3
Experimental: RP-HPLC analysis was performed using a Merck-Hitachi LaChrom Elite System (Merck, Darmstadt, Germany) with diode array detector L-2455, thermostat L-2300, pump L-2130 and autosampler L-2200 with a Kinetex C18 (5µm; 150 × 4,6mm) chromatographic column (Phenomenex, Torrance, USA) as the stationary phase. The mobile phase consisted of methanol (Merck, Darmstadt, Germany) and water (double-distilled), which was degassed by use of the built-in membrane degasser. Subsequently, 5 μL methanolic solution (0.1%; m/v) of the selected samples was applied to the chromatographic column by use of a Hitachi L-2200 autosampler (LaChrom Elite, Hitachi-Merck, Darmstadt, Germany). The analysis was performed with a flow rate of 0.7 mL min^−1 in isocratic mode using various concentrations of organic modifier (methanol) in binary polar mobile phases; percentages of methanol in water were 55–80% (%, v/v) and changed by 5% per step. Chromatograms were detected at 254 nm and the temperature of the column was 25 °C. All experiments were repeated in triplicate and the final results were taken to be the arithmetic means. Dead time was measured using uracil (Calbiochem. Merck, Darmstadt, Germany).

G-361 melanoma = test: MTT cytotoxicity, G-361 melanoma; assay type: cell-based, human; details: for cytotoxic to melanoma cells (MTT test): G-361, concentration range used; for IC50: MTT test, 24 h treatment, G-361 melanoma
Experimental: Biological studies were performed on human malignant melanoma G-361 (ATCC CRL-1424) cell lines and human fibroblast BJ (ATCC® CRL-2522™) cell lines purchased from the American Type Culture Collection (ATCC, Manassas, VA USA). The G-361 cell lines were maintained in McCoy’s medium (Corning, NY, USA), and the fibroblast BJ cell line was cultured in EMEM (Corning, NY, USA). All media were supplemented with 10% heat-inactivated fetal bovine serum (PAN-Biotech, Aidenbach, Germany), 100 U/mL penicillin, 100 μg/mL streptomycin and 0.25 μg/mL amphotericin B (Sigma-Aldrich, St. Louis, MO, USA). Cultures were maintained at 37 °C in a humidified atmosphere of 95% air and 5% CO2. The experiments were performed using cells from passage 5 to 10.
The cytotoxicity of the new compounds was evaluated against both the G-361 and BJ cell lines. Cells were seeded into 96-well plates at a density of 3 × 10^4 cells/well and 2 × 10^4 cells/well. After 24 h of incubation, when 70–80% confluence was reached, the culture medium was removed and replaced with the fresh one containing the tested compounds in the concentration range of 10, 25, 50, 75, 100, 125 and 250 μM. Cells were cultured at 37 °C in the presence of 5% air with CO2 for another 24 h. The cytotoxicity of the test compounds was evaluated by the MTT colorimetric assay, based on the ability of live cells to convert yellow soluble tetrazolium salts (3-[4,5-dimethylthiazol-2-yl]- 2,5-diphenyltetrazolium bromide, MTT) to purple insoluble formazan by cellular dehydrogenase. After 24 h of incubation with solutions of the test compounds, 4 mg/mL MTT solution (Thermo Scientific, Waltham, MA, USA) was added to the cell cultures and incubation was continued for 4 h at 37 °C. The MTT medium was then removed, and the resulting crystals were dissolved in 200 µL of DMSO. The solution was measured for absorbance at 570 nm using a Power Wave xs spectrophotometric plate reader, BioTek Instruments (Winooski, VT, USA). The experiment was performed three times with three replicates for each concentration. IC50 values were determined using the AAT Bioquest IC50 calculator.

RP-TLC lipophilicity = assay type: physicochemical; details: for RMW (chromatographic lipophilicity parameter): RP-18 plates, methanol-water 65-95%, extrapolated to 0% methanol; for -S TLC (slope of linear equation): Table S3
Experimental: RP-TLC analysis was performed using RP-18 TLC silica gel 60 F254 plates (10 × 20 cm, Merck, Darmstadt, Germany) with a DS-II chromatographic horizontal chamber (CHROMDES, Lublin, Poland). The mobile phase consisted of methanol (POCH, Gliwice, Poland) and water with the following concentrations of methanol: 65–95% (%, v/v), with a concentration change every 5%. After drying, the spots were observed under a UV lamp with a wavelength of 254 nm.

melanoma line G-361 = test: Two-step cell cycle analysis (DAPI, image cytometry); assay type: cell-based, human; details: G-361, 24 h, IC50 concentration
Experimental: Cell-cycle assays was performed using NC 3000 system (Chemometec., Lillerød, Denmark) according to manufacturer’s protocol for the two-step cell cycle analysis. The G-361 cells were seeded in 12-well plates at a density of 1 × 10^5 cells/well, and the tested compounds with concentration IC50 were added when 70–80% of confluence was achieved. After 24 h of incubation with tested compounds, the cells were washed with PBS and thoroughly resuspended in 250 μL lysis buffer supplemented with 10 μg/mL DAPI. After 5 min incubation at 37 °C, cells were mixed with 250 μL stabilization buffer and loaded into the 8-chamber slide NC-Slide A8 (Chemometec., Lillerød, Denmark). Cellular fluorescence was quantified using a NucleoCounter® NC-3000™ image cytometer (Chemometec., Lillerød, Denmark). The obtained DNA content histograms were used to demarcate different phases of the cell cycle in tested samples. The experiments were performed three times with three replicates.

[1] = tested on: gastric cancer cell line MKN74; set-up: method as in PMID 22741788; details: MKN74 gastric cancer cells ref 9; cited from earlier work

## CSc1ccc(NC(=S)NNC(=O)COc2ccc(Cl)cc2Cl)cc1 [PK2, 1-(2,4-dichlorophenoxy)acetyl-4-(4-metylothiophenyl)thiosemicarbazide]
RP-HPLC lipophilicity
  logkW (chromatographic lipophilicity parameter): 4.7804
  -S HPLC (slope of linear equation): 6.3581
G-361 melanoma
  cytotoxic to melanoma cells (MTT test): cytotoxic
G-361 melanoma; Homo sapiens
  IC50: 108 ± 6 µM
RP-TLC lipophilicity
  RMW (chromatographic lipophilicity parameter): 3.2058
  -S TLC (slope of linear equation): 3.8253

## O=C(COc1ccc(Cl)cc1Cl)NNC(=S)Nc1ccccc1I [PK6, 1-(2,4-dichlorophenoxy)acetyl-4-(2-iodophenyl)thiosemicarbazide]
RP-HPLC lipophilicity
  logkW (chromatographic lipophilicity parameter): 4.1439
  -S HPLC (slope of linear equation): 5.4574
G-361 melanoma
  cytotoxic to melanoma cells (MTT test): cytotoxic
  IC50: 112 ± 4.76 µM
RP-TLC lipophilicity
  RMW (chromatographic lipophilicity parameter): 2.8125
  -S TLC (slope of linear equation): 3.3436

## O=C(COc1ccc(Cl)cc1Cl)NNC(=S)Nc1cccc2ccccc12 [PK9, 1-(2,4-dichlorophenoxy)acetyl-4-(1-naphtyl)thiosemicarbazide]
RP-HPLC lipophilicity
  logkW (chromatographic lipophilicity parameter): 4.6425
  -S HPLC (slope of linear equation): 6.1619
Melanoma line G-361
  effect on cell cycle: no cell cycle arrest was observed
[1]
  effect on cell cycle: inhibited the cell cycle in S and G2 phases
G-361 melanoma
  cytotoxic to melanoma cells (MTT test): cytotoxic
  IC50: 113 ± 4 µM
RP-TLC lipophilicity
  RMW (chromatographic lipophilicity parameter): 3.1398
  -S TLC (slope of linear equation): 3.8345

From publication PMC8961551, “Potential Anticancer Agents against Melanoma Cells Based on an As-Synthesized Thiosemicarbazide Derivative” (Biomolecules, 2022)
